Legend:
[1] = system: THP-1 cells; assay: PI uptake assay after TBZ treatment; format: cell-based; details: Homo sapiens; THP-1, TBZ, 8 h
Protocol: To identify potential inhibitors of the necroptosis pathway targeting MLKL or the process of p-MLKL pore formation on the membrane, we screened a library of 2150 compounds, including FDA-approved drugs and those in phase 1–3 clinical trials, using THP-1-HMGB1-Lucia™ cells expressing the HMGB1-luciferase fusion protein. The cells were treated with a necroptosis-inducing mixture containing TNF-α, BV6, and Z-VAD-FMK (TBZ) in addition to the compound library (Fig. 1A). The supernatants were harvested to measure luciferase activities for necroptosis. The luciferase activities of cell supernatants treated with TBZ alone were considered as the maximum release (100%) of HMGB1-luciferase. NEC-1, a known RIP1 inhibitor used in both humans and mice, was used as a positive control. An initial screening was performed to identify compounds that reduced luciferase activity to within 20% of the TBZ-treated supernatant, and 72 compounds (S1–S72) were selected (Table S1). Among these compounds were four known necroptosis inhibitors of pazopanib (S10), bardoxolone (S16), ponatinib (S17), and dabrafenib (S31), indicating the reliability of this screening assay. […]
PI uptake assays were performed in triplicate to evaluate pore formation on the plasma membrane. […] Fluorescence was recorded using a Varioskan Flash 3001 plate reader (Thermo Fisher Scientific, Waltham, MA, USA).

[2] = system: p-MLKL and p-RIP1; assay: Western blot of cytosol and membrane fractions; format: cell-based, human; details: THP-1, TBZ, 20 μM
Protocol: The cells were harvested and lysed in 1× RIPA buffer (R4100-010, GenDEPOT, Katy, TX, USA) containing protease (P3100-001, GenDEPOT) and phosphatase (1862495, Thermo Fisher Scientific) inhibitors. WCLs were then centrifuged at 20,000×g for 30 min at 4 °C and subjected to non-reducing or reducing 8–12% SDS-PAGE gel electrophoresis. The membrane was blocked with 5% non-fat milk in TBS and probed with antibodies. Antibodies to hMLKL (14993S), mMLKL (97705S), phospho-hMLKL (Ser358) (91689S), phospho-mMLKL (Ser345) (37333S), phospho-hRIP1 (Ser166) (65746S), mRIP1 (3493S), phospho-mRIP1 (Ser321) (38662S), phospho-hRIP3 (Ser227) (93654), mRIP3 (95702S), p-mRIP3 (Thr231/Ser232) (91702S), and LDH (2012S) (Cell Signaling Technology, Danvers, MA, USA), and GAPDH (LF-PA0018, Abfrontier, S. Korea), hRIP1 (ab72139, Abcam, Cambridge, UK), hRIP3 (sc-135170, Santa Cruz Biotechnology, Dallas, TX, USA), HMGB1 (ab78923, Abcam), and LAMP1 (ab24170, Abcam) antibodies were used.
Cell membrane fractionation was performed to determine whether MLKL oligomers were retained in the cell membrane fraction. Briefly, THP-1 cells were harvested and resuspended in 20 mM TBS (pH 7.4) containing 10 mM KCl, 1 mM MgCl2, protease inhibitor (P3100-001, GenDEPOT), and phosphatase inhibitor (1862495, Thermo Fisher Scientific). The cell suspension was passed through a 22-gauge needle and centrifuged at 20,000×g for 15 min and stored as the cytoplasmic fraction. The pellet was resuspended in lysis buffer and stored as the crude membrane fraction.
Fig. S1 Assessment of p-MLKL inhibition to identify MLKL-targeting molecules. (A) Quantification graph corresponding to Fig. 1C. THP-1 cells were treated with TBZ in the presence of secondarily selected compounds (S1–S72, 20 μM). Whole-cell lysates (WCLs) were collected and subjected to Western blot analysis under reducing conditions using antibodies against p-MLKL, MLKL, and GAPDH. The p-MLKL/MLKL ratio was quantified and compared to that of TBZ-treated cells. Data represent the mean of three independent experiments. (B) Quantification graph corresponding to Fig. 1D. THP-1 cells were treated with TBZ in the presence of third-round selected compounds (S1–S62, 20 μM). Cytosolic and membrane fractions were collected and analyzed by Western blot under reducing conditions. The levels of p-MLKL and p-RIP1 were normalized to LDH (cytosolic marker) and LAMP1 (membrane marker), respectively. Quantified ratios were compared to those of TBZ-treated cells (n = 3 independent experiments).

Structure (SMILES): CN1CCc2cccc3c2[C@@H]1Cc1ccc(O)c(O)c1-3 [S62, (6aS)-6-methyl-5,6,6a,7-tetrahydro-4H-dibenzo[de,g]quinoline-10,11-diol]
- IC50 [1]: 5.7 µM
- p-MLKL levels in the cytosolic fraction [2]: little or moderate inhibition
- p-MLKL levels in the membrane fraction [2]: significantly inhibited

From PMC12518639, “Apomorphine is a novel necroptosis inhibitor targeting mixed lineage kinase domain-like protein oligomerization” (Cell Death Discovery, 2025)
